Source: patent US20260069588A1, “VEPDEGESTRANT FOR USE IN TREATING CANCER” (Arvinas Operation, Inc., priority 2022, published 2026)
Like-named read-outs stand apart in the source and are kept apart here. Marks after values point to notes of the source that are not given here.

Assays:
[1] = Phase 2 study of Compound A or anastrozole in early ER+/HER2− breast cancer: adverse events; details: TEAE, Treatment Related per title; Compound A 200 mg N = 23, Anastrozole 1 mg N = 13
[2] = human, in vivo
hERG channel = hERG channel (Homo sapiens, UniProt Q12809); test: hERG channel inhibition; format: biochemical
Method: The pivotal nonclinical safety studies were conducted in the US in accordance with GLP regulations per the US 21 CFR Part 58. These include the cardiovascular safety pharmacology study in dogs, the pivotal 28-day and 3-month repeat-dose toxicology studies in rats and dogs, and an in vitro phototoxicity assay. The bacterial reverse mutation assay, in vitro micronucleus assay, and 2 in vitro hERG studies were conducted in the UK in accordance with the UK Good Laboratory Practice Monitoring Authority, MHRA: Good Laboratory Practice Regulations 1999, Statutory Instrument 1999 No. 3106 as amended by the Good Laboratory Practice (Codification Amendments Etc.) Regulations, 2004, Statutory Instrument 2004, No. 994; and the OECD GLP and OECD Principles on Good Laboratory Practice ENV/MC/CHEM (98) 17 (Revised in 1997, Issued January 1998).accordance with the OECD Principles of Good Laboratory Practice and as accepted by Regulatory Authorities throughout the European Union, United States of America (FDA), Japan (MHLW), and other countries that are signatories to the OECD Mutual Acceptance of Data Agreement.

ER = biological target: T1, ER (Homo sapiens, UniProt P03372); test: ER degradation in ER+ cell lines (MCF7); format: cell-based; parameters: endogenous in cells; host or cells: MCF7 (and a panel of unnamed ER+ cell lines)
T1 sequence (P03372 1-595): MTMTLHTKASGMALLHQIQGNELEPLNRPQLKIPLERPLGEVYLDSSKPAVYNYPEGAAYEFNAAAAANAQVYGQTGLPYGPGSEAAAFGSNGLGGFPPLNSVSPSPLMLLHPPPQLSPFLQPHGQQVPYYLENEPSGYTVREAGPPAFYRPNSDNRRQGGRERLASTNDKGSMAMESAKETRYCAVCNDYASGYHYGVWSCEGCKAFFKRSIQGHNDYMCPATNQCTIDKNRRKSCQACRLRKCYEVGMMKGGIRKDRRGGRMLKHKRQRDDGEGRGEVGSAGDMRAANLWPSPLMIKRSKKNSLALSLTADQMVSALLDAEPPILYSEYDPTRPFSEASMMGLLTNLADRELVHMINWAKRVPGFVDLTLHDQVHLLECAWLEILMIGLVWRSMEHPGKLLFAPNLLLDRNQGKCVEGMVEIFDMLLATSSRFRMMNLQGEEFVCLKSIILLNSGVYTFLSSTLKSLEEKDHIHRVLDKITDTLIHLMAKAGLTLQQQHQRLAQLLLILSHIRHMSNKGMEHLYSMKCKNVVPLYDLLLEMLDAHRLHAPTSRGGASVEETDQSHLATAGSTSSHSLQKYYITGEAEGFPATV

[3] = Interconversion (epimerization) Compound A/Compound B in animals; format: in vivo, mouse, rat, dog, and monkey
clinical = details: human, in vivo
T47D cells = test: Live-cell imaging proliferation, T47D; format: cell-based; details: Homo sapiens, 144 h, up to 6 days
Description: (§1) Full growth of the cells over this time period is shown by extent of cell confluence with dimethyl sulfoxide (DMSO).

MCF7 cells = test: Live-cell imaging proliferation, MCF7; format: cell-based; details: Homo sapiens, 144 h; MCF7, up to 6 days
Description: as §1

Chain of hERG channel (Q12809 whole entry): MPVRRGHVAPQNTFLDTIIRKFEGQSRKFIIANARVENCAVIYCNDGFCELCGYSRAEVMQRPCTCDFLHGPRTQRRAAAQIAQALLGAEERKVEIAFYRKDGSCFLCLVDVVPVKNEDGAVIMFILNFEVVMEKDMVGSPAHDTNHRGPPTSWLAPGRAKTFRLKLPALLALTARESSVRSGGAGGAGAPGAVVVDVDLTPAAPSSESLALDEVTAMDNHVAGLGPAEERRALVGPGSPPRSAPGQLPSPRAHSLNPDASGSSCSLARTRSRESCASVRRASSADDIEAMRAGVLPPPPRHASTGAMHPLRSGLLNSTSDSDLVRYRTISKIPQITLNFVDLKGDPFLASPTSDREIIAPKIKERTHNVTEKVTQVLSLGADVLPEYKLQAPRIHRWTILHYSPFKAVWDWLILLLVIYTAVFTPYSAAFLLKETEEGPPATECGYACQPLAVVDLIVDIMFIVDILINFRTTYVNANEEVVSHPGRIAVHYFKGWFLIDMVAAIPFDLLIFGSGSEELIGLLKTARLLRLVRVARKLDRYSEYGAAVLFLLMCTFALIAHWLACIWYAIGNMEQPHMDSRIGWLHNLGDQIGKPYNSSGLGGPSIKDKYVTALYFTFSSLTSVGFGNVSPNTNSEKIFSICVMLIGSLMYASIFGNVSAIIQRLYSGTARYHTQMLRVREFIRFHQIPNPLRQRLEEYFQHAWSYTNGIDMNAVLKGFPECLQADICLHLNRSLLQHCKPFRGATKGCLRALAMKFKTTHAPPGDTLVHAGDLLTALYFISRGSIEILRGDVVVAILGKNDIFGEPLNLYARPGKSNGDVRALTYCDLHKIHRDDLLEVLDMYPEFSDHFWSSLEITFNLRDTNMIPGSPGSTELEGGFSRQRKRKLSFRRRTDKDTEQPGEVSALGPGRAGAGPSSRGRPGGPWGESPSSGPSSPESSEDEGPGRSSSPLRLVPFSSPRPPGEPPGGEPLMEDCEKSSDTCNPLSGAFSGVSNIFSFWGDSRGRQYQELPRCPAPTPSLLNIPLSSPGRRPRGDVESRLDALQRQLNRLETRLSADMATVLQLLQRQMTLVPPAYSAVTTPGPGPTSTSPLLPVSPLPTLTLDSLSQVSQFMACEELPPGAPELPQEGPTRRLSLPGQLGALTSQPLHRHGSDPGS

Question: With `CC(C)(C#N)c1cc(Cn2cncn2)cc(C(C)(C)C#N)c1` [Anastrozole] as the compound, how does the Anemia [1] read?
Answer: The Anemia was 1 (7.7) n (%).

Question: And the Arthralgia [1]?
Answer: Its Arthralgia is 1 (7.7) n (%).

Question: And the Asphyxia [1]?
Answer: Its Asphyxia is 0 n (%).

Question: And the Asthenia [1]?
Answer: Its Asthenia is 0 n (%).

Question: What about the “Blood and lymphatic system disorders” value [1] of the same compound?
Answer: The value was 1 (7.7) n (%).

Question: And the “Blood uric acid increased” value [1]?
Answer: The value was 0 n (%).

Question: What about the Breast pain [1] of the same compound?
Answer: The Breast pain was 0 n (%).

Question: And the Cardiac disorders [1]?
Answer: Its Cardiac disorders is 0 n (%).

Question: And the Constipation [1]?
Answer: The Constipation was 1 (7.7) n (%).

Question: What about the Diarrhea [1] of the same compound?
Answer: Its Diarrhea is 0 n (%).

Question: What about the Dyspepsia [1] of the same compound?
Answer: Its Dyspepsia is 1 (7.7) n (%).

Question: What about the Fatigue [1] of the same compound?
Answer: The Fatigue was 0 n (%).

Question: What about the Gastrointestinal disorders [1] of the same compound?
Answer: The Gastrointestinal disorders was 1 (7.7) n (%).

Question: What about the “General disorders and administration site conditions” value [1] of the same compound?
Answer: The value was 0 n (%).

Question: And the Hematocrit decreased [1]?
Answer: Its Hematocrit decreased is 1 (7.7) n (%).

Question: And the Heparin-induced thrombocytopenia [1]?
Answer: The Heparin-induced thrombocytopenia was 0 n (%).

Question: And the Hepatobiliary disorders [1]?
Answer: The Hepatobiliary disorders was 0 n (%).

Question: And the Hot flush [1]?
Answer: Its Hot flush is 0 n (%).

Question: And the Hyperbilirubinemia [1]?
Answer: Its Hyperbilirubinemia is 0 n (%).

Question: What about the Hypercalcemia [1] of the same compound?
Answer: Its Hypercalcemia is 0 n (%).

Question: And the Hyperglycemia [1]?
Answer: Its Hyperglycemia is 0 n (%).

Question: What about the Hypernatremia [1] of the same compound?
Answer: Its Hypernatremia is 0 n (%).

Question: What about the Hypertransaminasemia [1] of the same compound?
Answer: Its Hypertransaminasemia is 0 n (%).

Question: What about the Hypokalemia [1] of the same compound?
Answer: Its Hypokalemia is 0 n (%).

Question: What about the Hyponatremia [1] of the same compound?
Answer: The Hyponatremia was 0 n (%).

Question: What about the “Injury, poisoning and procedural complications” value [1] of the same compound?
Answer: The value was 0 n (%).

Question: What about the Insomnia [1] of the same compound?
Answer: The Insomnia was 0 n (%).

Question: And the Investigations [1]?
Answer: The Investigations was 1 (7.7) n (%).

Question: What about the Lymphopenia [1] of the same compound?
Answer: Its Lymphopenia is 1 (7.7) n (%).

Question: And the “Metabolism and nutrition disorders” value [1]?
Answer: The value was 0 n (%).

Question: What about the “Musculoskeletal and connective tissue disorders” value [1] of the same compound?
Answer: Its value is 1 (7.7) n (%).

Question: What about the Myalgia [1] of the same compound?
Answer: Its Myalgia is 1 (7.7) n (%).

Question: What about the Nervous system disorders [1] of the same compound?
Answer: Its Nervous system disorders is 0 n (%).

Question: What about the Odynophagia [1] of the same compound?
Answer: Its Odynophagia is 0 n (%).

Question: What about the Procedural pain [1] of the same compound?
Answer: The Procedural pain was 0 n (%).

Question: What about the Pruritus [1] of the same compound?
Answer: Its Pruritus is 0 n (%).

Question: What about the Psychiatric disorders [1] of the same compound?
Answer: The Psychiatric disorders was 0 n (%).

Question: What about the Pyrexia [1] of the same compound?
Answer: Its Pyrexia is 0 n (%).

Question: What about the “Reproductive system and breast disorders” value [1] of the same compound?
Answer: The value was 0 n (%).

Question: And the “Respiratory, thoracic and mediastinal disorders” value [1]?
Answer: Its value is 0 n (%).

Question: And the Sinus bradycardia [1]?
Answer: The Sinus bradycardia was 0 n (%).

Question: What about the “Skin and subcutaneous tissue disorders” value [1] of the same compound?
Answer: Its value is 0 n (%).

Question: What about the Somnolence [1] of the same compound?
Answer: Its Somnolence is 0 n (%).

Question: And the Stomatitis [1]?
Answer: The Stomatitis was 0 n (%).

Question: What about the Tension [1] of the same compound?
Answer: Its Tension is 0 n (%).

Question: What about the Vascular disorders [1] of the same compound?
Answer: The Vascular disorders was 0 n (%).

Question: And the “With Any Adverse Event” value [1]?
Answer: Its value is 2 (15.4) n (%).

Question: Which “Rac (AUCtau)” value ([2]; 30 mg) does the source give for `O=C1CC[C@@H](N2Cc3cc(N4CCN(CC5CCN(c6ccc([C@@H]7c8ccc(O)cc8CC[C@@H]7c7ccccc7)cc6)CC5)CC4)ccc3C2=O)C(=O)N1` [Compound B] here?
Answer: The value was 7.1.

Question: And the Tmax ([2]; 30 mg)?
Answer: Its Tmax is 6.0 h.

Question: And the “Rac (AUCtau)” value ([2]; 60 mg)?
Answer: The value was 7.3.

Question: And the “Rac (AUCtau)” value ([2]; 100 mg)?
Answer: Its value is 6.1 ^f.

Question: And the Tmax ([2]; 100 mg)?
Answer: The Tmax was 6.0 h.

Question: And the “Rac (AUCtau)” value ([2]; 120 mg)?
Answer: Its value is 5.7.

Question: And the Tmax ([2]; 120 mg)?
Answer: Its Tmax is 6.0 h.

Question: What about the “Rac (AUCtau)” value ([2]; 180 mg) of the same compound?
Answer: The value was 6.8.

Question: And the Tmax ([2]; 180 mg)?
Answer: The Tmax was 5.9 h.

Question: What about the “Rac (AUCtau)” value ([2]; 200 mg) of the same compound?
Answer: Its value is 5.1.

Question: What about the Tmax ([2]; 200 mg) of the same compound?
Answer: Its Tmax is 5.9 h.

Question: And the “MR AUCtau” value ([2]; 250 mg)?
Answer: The value was 0.36.

Question: What about the Tmax ([2]; 250 mg) of the same compound?
Answer: The Tmax was 4.1 h.

Question: What about the “Rac (AUCtau)” value ([2]; 360 mg) of the same compound?
Answer: Its value is 5.9.

Question: What about the Tmax ([2]; 360 mg) of the same compound?
Answer: Its Tmax is 6.0 h.

Question: And the “Rac (AUCtau)” value ([2]; 500 mg)?
Answer: The value was 5.9.

Question: And the Tmax ([2]; 500 mg)?
Answer: Its Tmax is 6.0 h.

Question: What about the “Rac (AUCtau)” value ([2]; 700 mg) of the same compound?
Answer: The value was 3.7 ^g.

Question: What about the Tmax ([2]; 700 mg) of the same compound?
Answer: The Tmax was 7.8 ^g h.

Question: What about the IC50 (hERG channel) of the same compound?
Answer: Its IC50 is > 20000 nM.

Question: What about the “unbound Cmax margin to hERG IC50” value (hERG channel; recommended Phase 3 dose of 200 mg) of the same compound?
Answer: The value was ~499 ×.

Question: What about the ER degradation (ER) of the same compound?
Answer: Its ER degradation is “does not degrade the ER”.

Question: And the extent of epimerization ([3]; monkey)?
Answer: The extent of epimerization was “negligible”.

Question: What about the “exposure of Compound B compared to Compound A” value ([3]; preclinical data) of the same compound?
Answer: Its value is < 26%.

Question: And the half-life (clinical; 30 mg)?
Answer: Its half-life is 104 h.

Question: What about the Tmax (clinical; 30 mg) of the same compound?
Answer: Its Tmax is 8 h.

Question: And the half-life (clinical; 60 mg)?
Answer: The half-life was 110 h.

Question: And the half-life (clinical; 100 mg)?
Answer: Its half-life is 99 h.

Question: What about the Tmax (clinical; 100 mg) of the same compound?
Answer: The Tmax was 7.8 h.

Question: What about the half-life (clinical; 120 mg) of the same compound?
Answer: Its half-life is 93 h.

Question: And the Tmax (clinical; 120 mg)?
Answer: The Tmax was 7.8 h.

Question: What about the half-life (clinical; 180 mg) of the same compound?
Answer: The half-life was 92 h.

Question: And the Tmax (clinical; 180 mg)?
Answer: Its Tmax is 7.8 h.

Question: What about the half-life (clinical; 200 mg) of the same compound?
Answer: The half-life was 85 h.

Question: What about the Tmax (clinical; 200 mg) of the same compound?
Answer: Its Tmax is 7.8 h.

Question: And the AUC(0-t) (clinical; 250 mg, AUCtau (AUC0-8))?
Answer: The AUC(0-t) was 179 ng·h/mL.

Question: What about the AUC(0-t) (clinical; 250 mg, AUCtau (AUC0-12)) of the same compound?
Answer: Its AUC(0-t) is 7390 ng·h/mL.

Question: What about the Tmax (clinical; 250 mg) of the same compound?
Answer: Its Tmax is 7.8 h.

Question: And the half-life (clinical; 360 mg)?
Answer: Its half-life is 96 h.

Question: What about the Tmax (clinical; 360 mg) of the same compound?
Answer: The Tmax was 7.8 h.

Question: What about the half-life (clinical; 500 mg) of the same compound?
Answer: The half-life was 96 h.

Question: What about the Tmax (clinical; 500 mg) of the same compound?
Answer: The Tmax was 7.8 h.

Question: What about the half-life (clinical; 700 mg) of the same compound?
Answer: The half-life was 52 h.

Question: And the Tmax (clinical; 700 mg)?
Answer: Its Tmax is 7.8 h.

Question: What about the Tmax (clinical) of the same compound?
Answer: The Tmax was 7.8 h.

Question: For `C[C@]12CC[C@@H]3c4ccc(O)cc4C[C@@H](CCCCCCCCC[S+]([O-])CCCC(F)(F)C(F)(F)F)[C@H]3[C@@H]1CC[C@@H]2O` (stereo partly shown) [fulvestrant, reference compound], which GI50 (T47D cells) is on record?
Answer: Its GI50 is 0.8 nM.

Question: What about the GI50 (MCF7 cells) of the same compound?
Answer: Its GI50 is 0.4 nM.
